Reference: ChEMBL document CHEMBL1201862, “PubChem BioAssay data set” (2004)
Calls of active or inactive are those of the source.

Columns and labels:
[1] = target: Cytochrome P450 3A4 (Homo sapiens, UniProt P08684);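 also: CYP3A4 tested as one member of a cytochrome P450 panel screen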
[2] = restored growth of temperature-sensitive Burl-1 yeast – whole organism, S. cerevisiae, Burl-1 ts mutant, luminescence, counter-screen for SUMOylation pathway inhibitor project, dose response (AID 463199); type: functional
[3] = target: Dual specificity protein phosphatase 3 (Homo sapiens, UniProt P51452); experiment: SAR VHR1 Fluorescent Assay for In Vitro dose response studies Set 2. [Related pubchem assays (depositor defined):AID1654, AID1661, AID1878]; type: functional
[4] = target: Dual specificity protein phosphatase 6 (Rattus norvegicus, UniProt Q64346); type: functional;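 also: confirmatory in vitro dose-response testing of MKP-3 inhibition; recombinant His-tagged MKP-3 made in E. coli BL21 with OMFP substrate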
[5] = target: T1, Zinc finger protein mex-5 (Caenorhabditis elegans, UniProt Q9XUB2); experiment: potency of MEX-5 RNA-binding blockers – biochemical, C. elegans, fluorescence polarization, dose response (AID 1960)
T1 sequence (Q9XUB2 whole entry): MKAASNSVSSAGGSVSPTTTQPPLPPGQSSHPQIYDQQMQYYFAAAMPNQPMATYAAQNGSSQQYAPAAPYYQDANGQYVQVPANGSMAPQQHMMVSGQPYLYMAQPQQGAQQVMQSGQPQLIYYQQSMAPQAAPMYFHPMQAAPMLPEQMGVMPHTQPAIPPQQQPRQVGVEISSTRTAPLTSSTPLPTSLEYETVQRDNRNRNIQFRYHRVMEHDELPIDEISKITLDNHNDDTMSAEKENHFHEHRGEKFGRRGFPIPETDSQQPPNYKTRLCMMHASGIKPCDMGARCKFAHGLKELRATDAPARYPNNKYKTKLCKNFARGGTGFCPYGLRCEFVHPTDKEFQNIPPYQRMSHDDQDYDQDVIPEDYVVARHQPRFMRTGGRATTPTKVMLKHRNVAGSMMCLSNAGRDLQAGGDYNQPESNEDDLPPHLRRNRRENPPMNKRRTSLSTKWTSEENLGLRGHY

[6] = target: UDP-galactopyranose mutase (Mycobacterium tuberculosis, UniProt P9WIQ1); experiment: Inhibitors of Mycobacterium tuberculosis UDP-galactopyranose mutase (UGM) enzyme Measured in Biochemical System Using Plate Reader - 2105-02_Inhibitor_Dose_CherryPick_Activity. [Related pubchem assays (depositor defined):AID504439]
[7] = target: T2, RNA-binding protein pos-1 (Caenorhabditis elegans, UniProt G5EF15); experiment: disruptors of C. elegans POS-1 RNA interaction – biochemical, fluorescence polarization, dose response (AID 1964);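 also: purified POS-1 fused to maltose binding protein made in E. coli; potency of compounds blocking POS-1 binding to fluorescent RNA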
T2 sequence (G5EF15 whole entry): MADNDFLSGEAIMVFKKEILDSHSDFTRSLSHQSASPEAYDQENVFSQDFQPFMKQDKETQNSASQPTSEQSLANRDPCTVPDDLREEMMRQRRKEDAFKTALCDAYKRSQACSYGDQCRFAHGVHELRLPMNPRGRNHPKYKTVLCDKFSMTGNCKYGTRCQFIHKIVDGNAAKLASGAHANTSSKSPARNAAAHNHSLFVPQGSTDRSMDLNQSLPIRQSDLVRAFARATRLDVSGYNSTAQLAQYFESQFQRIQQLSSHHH

Sequence of Dual specificity protein phosphatase 6 (Q64346 whole entry): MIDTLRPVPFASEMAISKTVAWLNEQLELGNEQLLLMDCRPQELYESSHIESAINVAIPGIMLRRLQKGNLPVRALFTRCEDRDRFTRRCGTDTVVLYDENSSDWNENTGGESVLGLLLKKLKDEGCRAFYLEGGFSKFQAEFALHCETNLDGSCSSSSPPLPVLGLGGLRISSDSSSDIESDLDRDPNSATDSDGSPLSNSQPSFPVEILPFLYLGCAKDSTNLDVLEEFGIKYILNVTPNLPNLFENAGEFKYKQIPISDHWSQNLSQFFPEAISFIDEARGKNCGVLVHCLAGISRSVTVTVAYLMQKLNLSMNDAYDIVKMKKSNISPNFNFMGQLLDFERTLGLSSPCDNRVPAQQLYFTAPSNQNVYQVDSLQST
Sequence of Dual specificity protein phosphatase 3 (P51452 whole entry): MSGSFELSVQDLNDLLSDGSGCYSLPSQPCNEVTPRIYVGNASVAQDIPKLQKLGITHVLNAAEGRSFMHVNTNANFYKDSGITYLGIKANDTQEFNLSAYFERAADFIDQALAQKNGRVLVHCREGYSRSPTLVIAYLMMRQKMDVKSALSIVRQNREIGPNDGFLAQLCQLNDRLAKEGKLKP
Sequence of UDP-galactopyranose mutase (P9WIQ1 whole entry, the tested form may be a part): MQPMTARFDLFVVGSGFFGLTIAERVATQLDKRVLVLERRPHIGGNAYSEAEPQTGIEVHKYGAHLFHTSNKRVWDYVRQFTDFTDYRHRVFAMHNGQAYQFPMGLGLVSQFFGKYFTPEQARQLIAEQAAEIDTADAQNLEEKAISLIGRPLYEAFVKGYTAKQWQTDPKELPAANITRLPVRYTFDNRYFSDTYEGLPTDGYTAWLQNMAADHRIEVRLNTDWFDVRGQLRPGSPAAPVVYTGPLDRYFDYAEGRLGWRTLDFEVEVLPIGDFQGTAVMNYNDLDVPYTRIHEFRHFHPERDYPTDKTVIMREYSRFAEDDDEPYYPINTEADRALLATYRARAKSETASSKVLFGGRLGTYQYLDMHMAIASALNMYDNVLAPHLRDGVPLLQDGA
Sequence of Cytochrome P450 3A4 (P08684 whole entry): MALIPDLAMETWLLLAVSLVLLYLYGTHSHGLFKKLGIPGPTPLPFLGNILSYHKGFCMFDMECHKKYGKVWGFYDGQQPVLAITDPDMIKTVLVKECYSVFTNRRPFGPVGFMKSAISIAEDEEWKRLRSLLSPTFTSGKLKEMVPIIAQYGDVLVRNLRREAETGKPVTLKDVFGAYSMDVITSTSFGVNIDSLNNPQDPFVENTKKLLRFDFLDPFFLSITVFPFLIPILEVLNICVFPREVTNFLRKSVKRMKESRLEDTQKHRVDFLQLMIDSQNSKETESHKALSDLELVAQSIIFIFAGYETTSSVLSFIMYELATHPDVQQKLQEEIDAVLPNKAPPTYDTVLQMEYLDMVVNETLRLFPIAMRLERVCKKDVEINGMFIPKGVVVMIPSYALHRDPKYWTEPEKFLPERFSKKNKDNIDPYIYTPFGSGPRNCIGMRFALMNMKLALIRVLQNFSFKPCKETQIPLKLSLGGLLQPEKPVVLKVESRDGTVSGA

In the case of CC(=O)Nc1ccccc1C(=O)OCc1ccc(C(=O)c2ccccc2)cc1, the AC50 [1] is reported as “inconclusive”.

For Cc1ccc(C2C(C(=O)c3cccs3)=C(O)C(=O)N2c2ccc(S(N)(=O)=O)cc2)cc1 (configuration not stated), the AC50 [2] was 48.5 µM (active).

In the case of NS(=O)(=O)c1cc(C(=O)NC2CCSc3ccccc32)c(Cl)cc1Cl (configuration not stated), the IC50 [3] is reported as > 100 µM (inactive) and the IC50 [4] is reported as > 100 µM (inactive).

For CCOCCCn1/c(=N/C(=O)c2cccs2)c(C#N)cc2c(=O)n3ccccc3nc21, the EC50 [5] was 40 µM (inconclusive), the AC50 [6] was > 500 µM (inactive) and the EC50 [7] was 28.9 µM (active).
